Drawing on patent publication US9650339B2, “Inhibitors of histone demethylases” (Gilead Sciences, Inc., priority 2013, dated 2017), this text covers IC50 for six compounds.

The test has as its target T1, KDM3A (JMJD1A) (Homo sapiens, UniProt Q9Y4C1).
T1 construct: 2-end; purchased BPS Bioscience, US; host or cells: Bac (baculovirus system)
T1 sequence (Q9Y4C1 2-1321 limits assumed): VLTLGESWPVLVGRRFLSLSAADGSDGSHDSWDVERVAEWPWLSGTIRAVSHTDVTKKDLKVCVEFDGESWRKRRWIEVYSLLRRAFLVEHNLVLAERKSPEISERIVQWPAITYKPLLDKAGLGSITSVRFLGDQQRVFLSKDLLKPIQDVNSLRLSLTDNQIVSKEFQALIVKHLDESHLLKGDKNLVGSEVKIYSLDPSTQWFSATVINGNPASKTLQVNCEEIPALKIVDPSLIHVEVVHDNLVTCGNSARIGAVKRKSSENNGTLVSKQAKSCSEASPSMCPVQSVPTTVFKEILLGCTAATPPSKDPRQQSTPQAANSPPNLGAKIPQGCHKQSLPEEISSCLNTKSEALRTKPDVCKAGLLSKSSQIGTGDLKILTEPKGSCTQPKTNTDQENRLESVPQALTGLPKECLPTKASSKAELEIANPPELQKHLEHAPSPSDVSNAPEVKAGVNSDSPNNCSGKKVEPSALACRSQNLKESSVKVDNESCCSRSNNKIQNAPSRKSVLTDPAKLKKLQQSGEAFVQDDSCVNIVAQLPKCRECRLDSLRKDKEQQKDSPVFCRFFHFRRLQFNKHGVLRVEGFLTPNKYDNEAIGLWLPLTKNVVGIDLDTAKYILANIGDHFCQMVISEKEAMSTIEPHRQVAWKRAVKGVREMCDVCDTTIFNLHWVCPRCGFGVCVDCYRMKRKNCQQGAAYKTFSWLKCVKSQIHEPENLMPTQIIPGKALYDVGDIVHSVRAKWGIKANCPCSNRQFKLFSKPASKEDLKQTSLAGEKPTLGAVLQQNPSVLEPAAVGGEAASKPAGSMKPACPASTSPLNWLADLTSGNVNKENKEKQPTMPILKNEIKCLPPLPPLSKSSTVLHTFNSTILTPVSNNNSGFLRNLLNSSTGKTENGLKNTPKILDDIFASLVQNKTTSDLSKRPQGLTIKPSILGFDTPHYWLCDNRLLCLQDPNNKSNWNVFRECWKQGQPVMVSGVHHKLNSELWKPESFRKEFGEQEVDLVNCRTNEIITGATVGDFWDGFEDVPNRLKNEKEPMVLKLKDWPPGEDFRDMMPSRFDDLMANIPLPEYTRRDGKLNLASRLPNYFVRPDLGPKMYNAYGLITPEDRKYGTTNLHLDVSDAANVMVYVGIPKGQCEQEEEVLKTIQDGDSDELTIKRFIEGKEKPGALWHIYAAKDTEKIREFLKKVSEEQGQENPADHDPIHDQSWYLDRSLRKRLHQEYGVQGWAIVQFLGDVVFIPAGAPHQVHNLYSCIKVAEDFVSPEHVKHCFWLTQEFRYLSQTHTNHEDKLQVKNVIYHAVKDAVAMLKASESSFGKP
As to the kind of experiment: Histone lysine demethylase AlphaLISA assay, KDM3A. It is filed as biochemical. To be noted: read-out: KDM3 A HDME Inhibition IC50. On the procedure:
Assays are performed analogously to the protocol described by PerkinElmer (Roy et al. PerkinElmer Technical Note: AlphaLISA #12, April 2011)
Enzymes are dissolved in enzyme buffer and incubated for 10 min before being added to 3% DMSO solutions of compounds in enzyme buffer. Incubated for another 10 minutes, before substrate solution is added and the reaction mixture is incubated at room temperature. 10 μL acceptor beads, suspended in Epigenetic Buffer (Perkin Elmer AL008) from stock, are added and the suspension is incubated in the dark at room temperature, before a suspension of streptavidin donor beads (Perkin Elmer 6760002) in Epigenetic Buffer is added. After incubation at room temperature in the dark the plates are read. […]
BK9M2: Biotin-ARTKQTAR(KMe2)STGGKAPRKQ-NH2 (AnaSpec 64359) […]
Substrate Solution: Substrate, 25 μM L-Asc, and 10 μM α-KG in Buffer A.
On the technique in general: Alpha assays give light when donor and acceptor beads are brought close together.

The IC50 is the point on the concentration scale where inhibition reaches its midpoint. As to `CN(C)CCCCNCc1cc(/C=N\C2CC2)ccn1` [Compound 45, N-{[2-({[4-(dimethylamino)butyl]-amino}methyl)-pyridin-4-yl]methylidene}-cyclopropanamine], the IC50 was over 2.5 µM.
Turning to `CN(C)CCCCNCc1cc(CNC2CC2)ccn1` [Compound 10, N-{[2-({[4-(dimethylamino)butyl]-amino}methyl)pyridin-4-yl]methyl}-cyclopropanamine], the IC50 is over 2.5 µM.
Turning to `CCN(CC)CCCCNCc1cc(CN)ccn1` [Compound 5, [2-({[4-(diethylamino)butyl]-amino}methyl)pyridin-4-yl]methanamine], the half-maximal inhibitory concentration (IC50) is over 2.5 µM.
On to `CCN(CC)C(=O)CNCc1cc(/C=N/CCC2CCCCC2)ccn1` [Compound 57, 2-[({4-[[(2-cyclohexylethyl)imino]-methyl]pyridin-2-yl}methyl)amino]-N,N-diethylacetamide], for which the IC50 was over 2.5 µM.
The result for `CCN(CCN(C)C)C(=O)CNCc1cc(CN)ccn1` [Compound 4, 2-({[4-(aminomethyl)pyridin-2-yl]methyl}amino)-N-[2-(dimethylamino)ethyl]-N-ethylacetamide] reads over 2.5 µM; that for `CN(C)CCCCCNCc1cc(C=O)ccn1` [Compound 114, 2-({[5-(dimethylamino)-pentyl]amino}methyl)-pyridine-4-carbaldehyde], over 2.5 µM.
